Patent US12071626B2, “Splice-switching oligonucleotides and methods of use” (priority 2015, dated 2024)
“Also recorded” adds a separate entry of the source. In the oligonucleotide strings, read from the 5' end, every base follows the letter of its sugar. An asterisk marks phosphorothioate; unmarked linkages are phosphodiester. Other units and linkages are bracketed, terminal groups are in braces. A string of capitals states the bases alone. m = 2'-O-methyl

Tests used:
Assay type in all cases: cell-based, human
EGFR pre-mRNA [1] = experiment: qPCR quantitation of EGFR exon 16 / exon 18 skipped products; details: increasing concentrations of SSO
Description: qPCR primers correspond to those used in FIG. 10 and endpoint PCR primers correspond to those used in FIG. 8.

EGFR pre-mRNA [2] = experiment: RT-PCR (endpoint, gel) of EGFR exon 16 / exon 18 skipping in LNCaP cells; details: increasing concentrations of SSO vs transfection reagent alone, RNA 72 hrs after transfection
Description: (§1) LNCaP cells were treated with transfection reagent alone or with increasing concentrations of exon 16 (left) or exon 18 (right) SSO. RNA was harvested 72 hrs after transfection. Targets were visualized by RT-PCR using primers located in the exons flanking the target exon, as depicted above the gel images. Products were confirmed by sequencing.
as §1, with “(SSO #1, left in FIG. 8)” for “(left)”, “(SSO #2, right in FIG. 8).” for “(right) SSO.”, “hours” for “hrs”, “images in FIG. 8.” for “images.”, “sequencing. The primers used were: […]” for “sequencing.”

pEGFR = pEGFR Western blot in LNCaP cells after EGF exposure; details: 250 nM SSO, 72 hrs post transfection, 10 ng/ml EGF for 10 minutes, normalized to GAPDH and vehicle control
Description: (§2) LNCaP cells were treated with transfection reagent alone or with 250 nM EGRF exon 16 or 18 SSOs. 72 hrs post transfection, cells were exposed to 10 ng/ml EGF for 10 minutes before lysing and haresting total protein. pEGFR and GAPDH were visualized via Western blot and imaged and quantified on a Licor Odyssey Fc. pEGFR quantities are normalized to GAPDH and then to vehicle control.
as §2, with “EGFR” for “EGRF”, “hours” for “hrs”, “ng/mL” for “ng/ml”, “harvesting” for “haresting”, “via” for “via Western blot and imaged and quantified on a Licor”

AR-V7 RNA = AR-V7 RNA by QRT-PCR in prostate cancer cells transfected with SSO; details: RNA 72 hours after transfection, normalized to TBP
Description: (§3) LN95, VCaP, 22Rv1 and MDA PCa 2b cells were treated with control scrambled SSO or with increasing concentrations of AR-V7 SSO, as indicated. RNA was harvested 72 hours after transfection for cDNA production and QRT-PCR analysis. Ct values were normalized to TBP, TATA-binding protein, in each sample and used to generate relative expression values.
as §3, with “MDA” for “LN95, VCaP, 22Rv1 and MDA”, “transfection reagent alone” for “control scrambled SSO”, “AR45” for “AR-V7”

[3] = test system: LN95 prostate cancer cells; experiment: Proliferation of LN95 prostate cancer cells
[4] = test system: MDA PCa 2b prostate cancer cells; experiment: Colony forming ability of MDA PCa 2b prostate cancer cells; details: MDA PCa 2b cells
AR-V7 protein = AR-V7 protein in LN95 prostate cancer cells transfected with SSO; details: increasing concentrations of SSO
wild type AR = experiment: Wild type (full-length) AR RNA by QRT-PCR in MDA PCa 2b cells transfected with SSO; details: increasing concentrations of SSO vs transfection reagent alone, RNA 72 hours after transfection, normalized to TBP
Description: as §3, with “MDA” for “LN95, VCaP, 22Rv1 and MDA”, “transfection reagent alone” for “control scrambled SSO”, “AR45” for “AR-V7”

AR45 = AR45 RNA by QRT-PCR in MDA PCa 2b cells transfected with SSO; details: increasing concentrations of SSO vs transfection reagent alone, RNA 72 hours after transfection, normalized to TBP
Description: as §3, with “MDA” for “LN95, VCaP, 22Rv1 and MDA”, “transfection reagent alone” for “control scrambled SSO”, “AR45” for “AR-V7”

AR signaling = experiment: AR signaling: QRT-PCR of known AR induced and AR repressed targets in MDA PCa 2b cells; details: 400 nM SSO vs transfection reagent alone, RNA 72 hours after transfection
Description: MDA Pca 2b cells were treated with transfection reagent alone or with 400 nM AR45 SSO. RNA was harvested 72 hours after transfection for cDNA production and QRT-PCR analysis (Light green=known AR induced targets, dark green=known AR repressed targets).

## mC*mC*mA*mG*mG*mG*mA*mC*mC*mU*mU*mA*mC*mC*mU*mU*mA*mU [EGFR exon 18 SSO]
EGFR pre-mRNA [1]
  production of dominant-negative EGFR variants (quantitated, qPCR of skipped product): drive production of dominant-negative EGFR variants in a dose-dependent manner
EGFR pre-mRNA [2]
  production of dominant-negative EGFR variants (exon skipping, RT-PCR gel): drive production of dominant-negative EGFR variants in a dose-dependent manner
pEGFR
  pEGFR protein expression: block pEGFR protein expression
pEGFR; listed as EGRF exon 18 SSO
  pEGFR protein expression: inhibition of pEGFR expression

## mG*mC*mC*mA*mA*mC*mC*mC*mG*mG*mA*mA*mU*mU*mU*mU*mU*mC [AR-V7 SSO]
AR-V7 RNA; 22Rv1 cells, vs control scrambled SSO
  AR-V7 RNA relative expression: inhibiting AR-V7 RNA; also recorded: Dose-dependent inhibition of AR-V7
AR-V7 RNA; LN95 cells, increasing concentrations of SSO vs control scrambled SSO
  AR-V7 RNA relative expression: inhibiting AR-V7 RNA (left) and protein (right) in a dose-dependent manner; also recorded: Dose-dependent inhibition of AR-V7
AR-V7 RNA; MDA PCa 2b cells, vs control scrambled SSO
  AR-V7 RNA relative expression: inhibiting AR-V7 RNA; also recorded: Dose-dependent inhibition of AR-V7
AR-V7 RNA; VCaP cells, vs control scrambled SSO
  AR-V7 RNA relative expression: inhibiting AR-V7 RNA; also recorded: Dose-dependent inhibition of AR-V7
[3]
  proliferation: inhibiting proliferation
[3]; in the presence of enzalutmide
  proliferation in the presence of enzalutamide: inhibiting proliferation
[4]
  colony forming ability: inhibiting colony forming ability
AR-V7 protein
  AR-V7 protein: inhibiting AR-V7 RNA (left) and protein (right) in a dose-dependent manner

## mG*mC*mU*mG*mU*mG*mA*mA*mC*mA*mC*mU*mU*mA*mC*mC*mC*mA [EGFR exon 16 SSO]
EGFR pre-mRNA [1]
  production of dominant-negative EGFR variants (quantitated, qPCR of skipped product): drive production of dominant-negative EGFR variants in a dose-dependent manner
EGFR pre-mRNA [2]
  production of dominant-negative EGFR variants (exon skipping, RT-PCR gel): drive production of dominant-negative EGFR variants in a dose-dependent manner
pEGFR
  pEGFR protein expression: block pEGFR protein expression
pEGFR; listed as EGRF exon 16 SSO
  pEGFR protein expression: inhibition of pEGFR expression

## mG*mG*mA*mA*mA*mA*mA*mC*mU*mU*mA*mC*mC*mG*mC*mA*mU*mG [AR45 SSO]
AR-V7 RNA; MDA PCa 2b cells, increasing concentrations of SSO vs transfection reagent alone
  expression of AR-V7 RNA: decreasing wild type AR and AR-V7; also recorded: decreasing expression of full-length AR and the constitutively active AR variant, AR-V7
Wild type AR
  expression of wild type (full-length) AR RNA: decreasing wild type AR and AR-V7; also recorded: decreasing expression of full-length AR
AR45
  production of AR45 (RNA relative expression): drives production of the dominant-negative AR variant, AR45
AR signaling
  AR signaling (RNAs of AR induced and AR repressed targets): modulating AR signaling; also recorded: Modulation of AR signaling
